Measured values: article PMC9516332 (Frontiers in Oncology, 2022)
Read-outs that look alike come from different tables or passages of the source.

Assays:
AP-1060 (ETV6-NTRK3) = experiment: Cell viability assay; details: read-out: IC50 in cell proliferation assay
[1] = target: T1, panel of 255 wild-type kinases (Homo sapiens, UniProt Q9BZL6); experiment: Kinase panel profiling at 1 µmol/L (MSA or IMAP), percentage inhibition; format: biochemical; details: kinase PKD2; 1 µmol/L single concentration; read-out: %-inhibition at 1 µmol/L, PKD2
T1 sequence (Q9BZL6 1-878): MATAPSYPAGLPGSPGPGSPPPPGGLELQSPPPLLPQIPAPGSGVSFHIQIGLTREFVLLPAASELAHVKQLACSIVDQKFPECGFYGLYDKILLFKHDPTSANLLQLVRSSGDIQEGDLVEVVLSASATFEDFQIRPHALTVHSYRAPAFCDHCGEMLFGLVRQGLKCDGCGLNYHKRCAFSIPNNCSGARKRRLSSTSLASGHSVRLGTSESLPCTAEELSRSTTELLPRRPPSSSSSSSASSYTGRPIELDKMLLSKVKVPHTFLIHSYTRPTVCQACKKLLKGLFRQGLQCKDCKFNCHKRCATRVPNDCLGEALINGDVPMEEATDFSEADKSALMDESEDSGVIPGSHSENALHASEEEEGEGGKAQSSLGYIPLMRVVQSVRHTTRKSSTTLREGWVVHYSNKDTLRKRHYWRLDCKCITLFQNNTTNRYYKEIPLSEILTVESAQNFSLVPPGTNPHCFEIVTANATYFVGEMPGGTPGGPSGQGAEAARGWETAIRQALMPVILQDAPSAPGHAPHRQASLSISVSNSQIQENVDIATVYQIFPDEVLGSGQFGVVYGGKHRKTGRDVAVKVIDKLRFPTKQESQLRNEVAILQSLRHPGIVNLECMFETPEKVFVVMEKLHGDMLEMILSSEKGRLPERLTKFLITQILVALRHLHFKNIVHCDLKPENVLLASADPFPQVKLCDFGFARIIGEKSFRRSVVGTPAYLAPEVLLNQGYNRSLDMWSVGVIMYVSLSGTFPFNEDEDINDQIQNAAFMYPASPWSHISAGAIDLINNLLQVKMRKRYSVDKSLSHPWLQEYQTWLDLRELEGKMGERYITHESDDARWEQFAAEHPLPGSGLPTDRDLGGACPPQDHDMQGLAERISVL

134 cancer cell lines = experiment: Cell viability assay (ATPlite, 72 hours), IC50 on cancer cell line panel

Q: How did the IC50 (AP-1060 (ETV6-NTRK3)) turn out when `CCn1c(=O)c(-c2cc(NC(=O)Nc3ccccc3)c(F)cc2Br)cc2cnc(NC)cc21` [ripretinib] was run?
A: 2830 nM

Q: What about the inhibition at 1 µM [1] of the same molecule?
A: 13%

Q: What about the IC50 (134 cancer cell lines; HEC-6, read-out: IC50 in cell proliferation assay) of the same molecule?
A: 1860 nM

Q: And the IC50 (134 cancer cell lines; Homo sapiens, 769-P, read-out: IC50 in cell proliferation assay)?
A: 2580 nM

Q: What about the IC50 (134 cancer cell lines; Homo sapiens, 786-0, read-out: IC50 in cell proliferation assay) of the same molecule?
A: 2140 nM

Q: What about the IC50 (134 cancer cell lines; Homo sapiens, A 172, read-out: IC50 in cell proliferation assay) of the same molecule?
A: 4960 nM

Q: What about the IC50 (134 cancer cell lines; Homo sapiens, A204, read-out: IC50 in cell proliferation assay) of the same molecule?
A: 520 nM

Q: What about the IC50 (134 cancer cell lines; Homo sapiens, A498, read-out: IC50 in cell proliferation assay) of the same molecule?
A: 1140 nM

Q: And the IC50 (134 cancer cell lines; Homo sapiens, A549, read-out: IC50 in cell proliferation assay)?
A: 2680 nM

Q: And the IC50 (134 cancer cell lines; Homo sapiens, A704, read-out: IC50 in cell proliferation assay)?
A: 2220 nM

Q: What about the IC50 (134 cancer cell lines; Homo sapiens, A-375, read-out: IC50 in cell proliferation assay) of the same molecule?
A: 2920 nM

Q: And the IC50 (134 cancer cell lines; Homo sapiens, A-427, read-out: IC50 in cell proliferation assay)?
A: 1520 nM

Q: What about the IC50 (134 cancer cell lines; Homo sapiens, ACHN, read-out: IC50 in cell proliferation assay) of the same molecule?
A: 1470 nM

Q: And the IC50 (134 cancer cell lines; Homo sapiens, AN3-CA, read-out: IC50 in cell proliferation assay)?
A: 1010 nM

Q: And the IC50 (134 cancer cell lines; Homo sapiens, ASPC1, read-out: IC50 in cell proliferation assay)?
A: 7560 nM

Q: What about the IC50 (134 cancer cell lines; Homo sapiens, AU565, read-out: IC50 in cell proliferation assay) of the same molecule?
A: 3760 nM

Q: And the IC50 (134 cancer cell lines; Homo sapiens, BT-20, read-out: IC50 in cell proliferation assay)?
A: 7430 nM

Q: What about the IC50 (134 cancer cell lines; Homo sapiens, BT-474, read-out: IC50 in cell proliferation assay) of the same molecule?
A: 2230 nM

Q: And the IC50 (134 cancer cell lines; Homo sapiens, BT-549, read-out: IC50 in cell proliferation assay)?
A: 4510 nM

Q: What about the IC50 (134 cancer cell lines; Homo sapiens, BXPC-3, read-out: IC50 in cell proliferation assay) of the same molecule?
A: 1510 nM

Q: And the IC50 (134 cancer cell lines; Homo sapiens, C-33-A, read-out: IC50 in cell proliferation assay)?
A: 4820 nM

Q: What about the IC50 (134 cancer cell lines; Homo sapiens, CAL-27, read-out: IC50 in cell proliferation assay) of the same molecule?
A: 9800 nM

Q: And the IC50 (134 cancer cell lines; Homo sapiens, CCF-STTG1, read-out: IC50 in cell proliferation assay)?
A: > 31600 nM

Q: And the IC50 (134 cancer cell lines; Homo sapiens, CCRF-CEM, read-out: IC50 in cell proliferation assay)?
A: 4980 nM

Q: What about the IC50 (134 cancer cell lines; Homo sapiens, COLO 205, read-out: IC50 in cell proliferation assay) of the same molecule?
A: 1870 nM

Q: What about the IC50 (134 cancer cell lines; Homo sapiens, COLO-829, read-out: IC50 in cell proliferation assay) of the same molecule?
A: 2490 nM

Q: What about the IC50 (134 cancer cell lines; Homo sapiens, DLD-1, read-out: IC50 in cell proliferation assay) of the same molecule?
A: 1540 nM

Q: And the IC50 (134 cancer cell lines; Homo sapiens, DU-145, read-out: IC50 in cell proliferation assay)?
A: 1970 nM

Q: And the IC50 (134 cancer cell lines; Homo sapiens, DU-4475, read-out: IC50 in cell proliferation assay)?
A: 3380 nM

Q: What about the IC50 (134 cancer cell lines; Homo sapiens, Daoy, read-out: IC50 in cell proliferation assay) of the same molecule?
A: 2060 nM

Q: What about the IC50 (134 cancer cell lines; Homo sapiens, DoTc2-4510, read-out: IC50 in cell proliferation assay) of the same molecule?
A: 6210 nM

Q: And the IC50 (134 cancer cell lines; Homo sapiens, EOL1, read-out: IC50 in cell proliferation assay)?
A: 0.634 nM

Q: What about the IC50 (134 cancer cell lines; Homo sapiens, FaDu, read-out: IC50 in cell proliferation assay) of the same molecule?
A: 3050 nM

Q: What about the IC50 (134 cancer cell lines; Homo sapiens, G-361, read-out: IC50 in cell proliferation assay) of the same molecule?
A: 2520 nM

Q: And the IC50 (134 cancer cell lines; Homo sapiens, HCC827, read-out: IC50 in cell proliferation assay)?
A: 3830 nM

Q: And the IC50 (134 cancer cell lines; Homo sapiens, HCC4006, read-out: IC50 in cell proliferation assay)?
A: > 31600 nM

Q: And the IC50 (134 cancer cell lines; Homo sapiens, HCT-15, read-out: IC50 in cell proliferation assay)?
A: 2560 nM

Q: What about the IC50 (134 cancer cell lines; Homo sapiens, HCT-116, read-out: IC50 in cell proliferation assay) of the same molecule?
A: 3020 nM

Q: What about the IC50 (134 cancer cell lines; Homo sapiens, HEC-1, read-out: IC50 in cell proliferation assay) of the same molecule?
A: 1360 nM

Q: What about the IC50 (134 cancer cell lines; Homo sapiens, HEC-1B, read-out: IC50 in cell proliferation assay) of the same molecule?
A: 426 nM

Q: And the IC50 (134 cancer cell lines; Homo sapiens, HL-60, read-out: IC50 in cell proliferation assay)?
A: 1820 nM

Q: What about the IC50 (134 cancer cell lines; Homo sapiens, HT, read-out: IC50 in cell proliferation assay) of the same molecule?
A: > 31600 nM

Q: And the IC50 (134 cancer cell lines; Homo sapiens, HT-1080, read-out: IC50 in cell proliferation assay)?
A: 1700 nM

Q: What about the IC50 (134 cancer cell lines; Homo sapiens, Hs746T, read-out: IC50 in cell proliferation assay) of the same molecule?
A: 3100 nM

Q: What about the IC50 (134 cancer cell lines; Homo sapiens, Hs-578T, read-out: IC50 in cell proliferation assay) of the same molecule?
A: 3730 nM

Q: And the IC50 (134 cancer cell lines; Homo sapiens, HuTu80, read-out: IC50 in cell proliferation assay)?
A: 1580 nM

Q: What about the IC50 (134 cancer cell lines; Homo sapiens, J82, read-out: IC50 in cell proliferation assay) of the same molecule?
A: 2300 nM

Q: And the IC50 (134 cancer cell lines; Homo sapiens, Jurkat E6.1, read-out: IC50 in cell proliferation assay)?
A: 2640 nM

Q: What about the IC50 (134 cancer cell lines; Homo sapiens, K562, read-out: IC50 in cell proliferation assay) of the same molecule?
A: 1850 nM

Q: And the IC50 (134 cancer cell lines; Homo sapiens, KATO III, read-out: IC50 in cell proliferation assay)?
A: 676 nM

Q: What about the IC50 (134 cancer cell lines; Homo sapiens, KG-1, read-out: IC50 in cell proliferation assay) of the same molecule?
A: 590 nM

Q: And the IC50 (134 cancer cell lines; Homo sapiens, KLE, read-out: IC50 in cell proliferation assay)?
A: 9980 nM

Q: What about the IC50 (134 cancer cell lines; Homo sapiens, KMS-11, read-out: IC50 in cell proliferation assay) of the same molecule?
A: 4570 nM

Q: And the IC50 (134 cancer cell lines; Homo sapiens, KU812, read-out: IC50 in cell proliferation assay)?
A: 850 nM

Q: What about the IC50 (134 cancer cell lines; Homo sapiens, Kasumi 1, read-out: IC50 in cell proliferation assay) of the same molecule?
A: 55 nM

Q: And the IC50 (134 cancer cell lines; Homo sapiens, LC-2-ad, read-out: IC50 in cell proliferation assay)?
A: 5380 nM

Q: What about the IC50 (134 cancer cell lines; Homo sapiens, LNCaP-Clone-FGC, read-out: IC50 in cell proliferation assay) of the same molecule?
A: 4880 nM

Q: What about the IC50 (134 cancer cell lines; Homo sapiens, LS174T, read-out: IC50 in cell proliferation assay) of the same molecule?
A: 9310 nM
